Values after ≈ are worked out from the molar mass of the structure shown. Marks after values point to notes of the source that are not given here.
Experiments:
[1] = test system: log phase and stationary phase B. burgdorferi culture; experiment: Antibiotic exposure assay, SYBR Green I/PI (drugs alone and combinations); conditions: for Live cell %, ten day old stationary phase culture (in brackets): 10 μg/mL drugs or combinations
Procedure: To qualitatively determine the effect of antibiotics, 10 μL of each compound from the pre-diluted plate or pre-diluted stock was added to stationary phase B. burgdorferi culture in the 96-well plate. The final volume per well was adjusted to 100 μL at a concentration of 10 μg/mL for each antibiotic. Plates were sealed and placed in a 33° C. incubator for 7 days. The SYBR Green I/PI viability assay was used to assess the live and dead cells after antibiotic exposure as described (Feng, Wang, Shi, et al., 2014). Briefly, 10 μL of SYBR Green I (10,000×stock, Invitrogen) was mixed with 30 μL propidium iodide (PI, 20 mM) into 1.0 mL of sterile dH2O. Then, 10 μL of staining mixture was added to each well and mixed thoroughly. The plates were incubated at room temperature in the dark for 15 minutes followed by plate reading at excitation wavelength at 485 nm and the fluorescence intensity at 535 nm (green emission) and 635 nm (red emission) in microplate reader (HTS 7000 plus Bio Assay Reader, PerkinElmer Inc., USA). With least-square fitting analysis, the regression equation and regression curve of the relationship between percentage of live bacteria and green/red fluorescence ratios was obtained. The regression equation was used to calculate the percentage of live cells in each well of the 96-well plate.
To qualitatively determine the effect of antibiotics, 10 μL of each compound (final concentration 50 μM) from the pre-diluted plate or pre-diluted stock was added to round body form or stationary phase B. burgdorferi culture in the 96-well plate. The final volume per well was adjusted to 100 μL. Plates were sealed and placed in a 33° C. incubator for 7 days. The SYBR Green I/PI viability assay was used to assess the live and dead cells after antibiotic exposure as described (Feng, Wang, Shi, et al., 2014). Briefly, 10 μL of SYBR Green I (10,000×stock, Invitrogen) was mixed with 30 μL propidium iodide (PI, 20 mM, Sigma-Aldrich) into 1.0 mL of sterile dH2O. Then, 10 μL staining mixture was added to each well and mixed thoroughly. The plates were incubated at room temperature in the dark for 15 minutes followed by plate reading at excitation wavelength at 485 nm and the fluorescence intensity at 535 nm (green emission) and 635 nm (red emission) in microplate reader (HTS 7000 plus Bio Assay Reader, PerkinElmer Inc., USA). With least-square fitting analysis, the regression equation and regression curve of the relationship between percentage of live and dead bacteria as shown in green/red fluorescence ratios was obtained. The regression equation was used to calculate the percentage of live cells in each well of the 96-well plate.
Round body form and ten day old stationary phase (in brackets) B. burgdorferi culture was treated with 10 μg/mL drugs or their combinations for 7 days. Residual viable B. burgdorferi was calculated according to the regression equation and ratio of Green/Red fluorescence obtained by SYBR Green I/PI assay as described (Feng, Wang, Shi, et al., 2014). Direct microscopy counting was employed to rectify the results of the SYBR Green I/PI assay. […] Abbreviation: Dox, doxcycline; CefP, cefoperazone; DAP, daptomycin; CefM, cefmetazole; Scp, sulfachlorpyridazine; Art, artemisinin; Nft, nitrofurantoin.

[2] = test system: round body form of B. burgdorferi; experiment: SYBR Green I/PI assay on amoxicillin-induced round body form; conditions: for Live cell %, round body form: 10 μg/mL drugs or combinations; for viability at 50 µM: Borreliella burgdorferi, 168 h, read-out: Residual viable cells (SYBR Green I/PI assay)
[3] = test system: stationary phase B. burgdorferi persisters (strain B31); experiment: epifluorescence microscope counting after SYBR Green I/PI staining, FDA drug screen; conditions: for viability at 50 µM: Borreliella burgdorferi, 168 h, read-out: Residual viable cells (epifluorescence microscope counting)
[4] = test system: stationary phase B. burgdorferi persisters (strain B31); experiment: SYBR Green I/PI viability assay (plate reader), FDA-approved drug library screen; conditions: for Ratio of Green/Red fluorescence, Primary screening / Ratio of Green/Red fluorescence, Rescreening (first column) / Ratio of Green/Red fluorescence, Rescreening (second column): 7 days, stationary phase; for viability at 50 µM: Borreliella burgdorferi, 168 h, read-out: Residual viable cells (regression equation, SYBR Green I/PI assay)
[5] = test system: B. burgdorferi (growing, strain B31); experiment: MIC determination, standard microdilution method; format: cell-based, Borrelia burgdorferi; conditions: Borreliella burgdorferi; growing B. burgdorferi; read-out: MIC
[6] = test system: S. aureus strains (Newman, USA300, CA-409, CA-127, NY-315); experiment: Rapid SYBR Green/PI antibiotic susceptibility test; format: cell-based, Staphylococcus aureus
[7] = 50 μM, 7-day old stationary phase cells treated for 7 days

O=C1CN(/N=C/c2ccc([N+](=O)[O-])o2)C(=O)N1 [Nft, nitrofurantoin]
Live cell %, ten day old stationary phase culture (in brackets) ([1]; 7 days): 82% | Live cell %, round body form ([2]; 7 days): 33%

polymyxin B [Pmb]
Live Cell % (residual viable B. burgdorferi) ([1]; ten-day-old stationary phase culture enriched with micro-colonies, 10 μg/mL each drug, 7 days): 77% ^c

CO/N=C(\C(=O)N[C@@H]1C(=O)N2C(C(=O)O)=C(COC(N)=O)CS[C@H]12)c1ccco1 [Cefuroxime]
viability at 50 µM [3]: 49% | viability at 50 µM [2]: 34% | Ratios of green/red fluorescence, Primary screening ([2]; round body form, 50 μM, 7 days): 6.29 | Ratios of green/red fluorescence, Rescreening (first column) ([2]; round body form, 50 μM, 7 days): 6.28 | Ratios of green/red fluorescence, Rescreening (second column) ([2]; round body form, 50 μM, 7 days): 6.31 | Ratio of Green/Red fluorescence, Primary screening ([4]; 50 μM): 6.59 | Ratio of Green/Red fluorescence, Rescreening (first column) ([4]; 50 μM): 6.84 | Ratio of Green/Red fluorescence, Rescreening (second column) ([4]; 50 μM): 6.67 | viability at 50 µM [4]: 43%

C[C@@H]1CC[C@H]2[C@@H](C)C(=O)O[C@@H]3O[C@@]4(C)CC[C@@H]1[C@]32OO4 [Artemisinin]
MIC [5]: 50 to 100 µg/mL (≈ 177 to 354 µM) | Live cell %, ten day old stationary phase culture (in brackets) ([1]; 7 days): 73% | Live cell %, round body form ([2]; 7 days): 28% | viability at 50 µM [2]: 24% | Ratios of green/red fluorescence, Primary screening ([2]; round body form, 50 μM, 7 days): 5.96 | Ratios of green/red fluorescence, Rescreening (first column) ([2]; round body form, 50 μM, 7 days): 6.14 | Ratios of green/red fluorescence, Rescreening (second column) ([2]; round body form, 50 μM, 7 days): 6.17

CC(=O)OCC1=C(C(=O)O)N2C(=O)[C@@H](NC(=O)Cc3cccs3)[C@H]2SC1 [Cephalothin]
viability at 50 µM [3]: 49% | Ratio of Green/Red fluorescence, Primary screening ([4]; 50 μM): 6.74 | Ratio of Green/Red fluorescence, Rescreening (first column) ([4]; 50 μM): 6.49 | Ratio of Green/Red fluorescence, Rescreening (second column) ([4]; 50 μM): 6.55 | viability at 50 µM [4]: 40%

Nc1ccc(S(=O)(=O)Nc2ccc(Cl)nn2)cc1 [Scp, sulfachlorpyridazine]
Live cell %, ten day old stationary phase culture (in brackets) ([1]; 7 days): 68% | residual viable / live cells, stated in text for stationary phase B. burgdorferi ([1]; drug combination test, refers to Table 6): about 38% | Live cell %, round body form ([2]; 7 days): 38%

CC1(C)S[C@@H]2[C@H](NC(=O)Cc3ccccc3)C(=O)N2[C@H]1C(=O)O [Penicillin G]
Residual viable cells (epifluorescence microscope counting) [3, 7]: 75% | Ratios of green/red fluorescence, Primary screening ([2]; round body form, 50 μM, 7 days): 6.33 | Ratios of green/red fluorescence, Rescreening (first column) ([2]; round body form, 50 μM, 7 days): 6.51 | Ratios of green/red fluorescence, Rescreening (second column) ([2]; round body form, 50 μM, 7 days): 6.33 | Residual viable cells (SYBR Green I/PI assay) ([2]; round body form, 50 μM, 7 days): 38% | Residual viable cells (regression equation, SYBR Green I/PI assay) [4, 7]: 68% | Ratio of Green/Red fluorescence, Primary screening ([4]; 50 μM): 7.41 | Ratio of Green/Red fluorescence, Rescreening (first column) ([4]; 50 μM): 7.68 | Ratio of Green/Red fluorescence, Rescreening (second column) ([4]; 50 μM): 7.92

gentamicin
cut-off (averaged proportion of killed cells) for resistant strains ([6]; 100 μg/mL, 1.5 hours): −0.2 | cut-off (averaged proportion of killed cells) for susceptible strains ([6]; 100 μg/mL, 1.5 hours): −0.3 | percent killed, resistant strain CA-409 ([6]; 30 minutes, kanamycin 25, ciprofloxacin 50, gentamicin 400 μg/mL): 10% | percent killed, sensitive Newman strain ([6]; 30 minutes, kanamycin 25, erythromycin 400, ciprofloxacin 50, gentamicin 400 μg/mL): 27%

CN(C)[C@@H]1C(O)=C(C(N)=O)C(=O)[C@@]2(O)C(O)=C3C(=O)c4c(O)cccc4[C@@](C)(O)[C@H]3C[C@@H]12 [Tetracycline]
viability at 50 µM [3]: 54% | viability at 50 µM [4]: 50%

CO[C@H]1/C=C/O[C@@]2(C)Oc3c(C)c(O)c4c(O)c(c(/C=N/N5CCN(C)CC5)c(O)c4c3C2=O)NC(=O)/C(C)=C\C=C\[C@H](C)[C@H](O)[C@@H](C)[C@@H](O)[C@@H](C)[C@H](OC(C)=O)[C@@H]1C [Rif, rifampin]
viability at 10 µg/mL ([1]; Borreliella burgdorferi, 168 h, read-out: Live Cell % (residual viable B. burgdorferi), ten-day-old stationary phase culture enriched with micro-colonies, 10 μg/mL each drug, 7 days): 82%
